Results published in patent US20150258105A1, “METHODS FOR ACUTE AND LONG-TERM TREATMENT OF ALCOHOL DEPENDENCE” (DemeRx, Inc., priority 2014, published 2015).
“Also recorded” adds a separate entry of the source.

What was measured:
[1] = system: healthy, drug-free male volunteers; assay: Pupillometry (pupillary miosis) in healthy volunteers; assay type: in vivo, human
Description: (§1) Pulse oximetry and capnography data were collected continuously using a GE Carescape B650 monitoring system from 2 hours prior to dosing and until six hours after dosing, and thereafter at 12, 24, 48 and 72 hours post-dosing. […] Pupillary miosis was assessed by pupillometry.
Summary statistics (means, standard deviations, and coefficients of variation) were determined for each dose group for safety laboratory test data, ECG and pharmacokinetic parameters, and pharmacodynamic variables. Categorical variables were analysed using counts and percentages. Dose-proportionality of AUC and Cmax was assessed using linear regression. The effect of dose on pharmacodynamic parameter values over time was assessed using two-factor analysis of variance (ANOVA). Pairwise comparisons (with Tukey-Kramer adjustment) between each dose group to the placebo were conducted at each time point using the least squares estimates obtained from the ANOVA, using SAS Proc Mixed (SAS ver 6.0).

[2] = system: healthy, drug-free male volunteers; assay: Cold pressor test (analgesic effect) in healthy volunteers; assay type: in vivo, human
Description: Analgesic effect was assessed based on duration of hand immersion in ice water and on visual analog scale (VAS) pain scores upon hand removal from the water bath.
(§2) Safety and tolerability of noribogaine were tested in the group of volunteers from Example 1. […] Safety evaluations included clinical monitoring, recording of adverse events (AEs), safety laboratory tests, vital signs, ECG telemetry from −2 h to 6 h after dosing, and 12-lead electrocardiograms (ECGs) up to 216 hours post-dosing.

[3] = system: healthy, drug-free male volunteers; assay: Safety and tolerability of noribogaine in healthy humans (adverse events, vital signs, ECG); assay type: in vivo, human
Description: as §1, §2

[4] = system: opioid-dependent participants; assay: Time to resumption of opioid substitution treatment (OST) in opioid-dependent participants; assay type: in vivo, human; settings: single 180 mg dose
[5] = system: opioid-dependent participants; assay: Opiate withdrawal scales (COWS, SOWS, OOWS) in opioid-dependent participants; assay type: in vivo, human; settings: first six hours following dosing
Description: Patients were evaluated based on the Clinical Opiate Withdrawal Scale (COWS), Subjective Opiate Withdrawal Scale (SOWS), and Objective Opiate Withdrawal Scale (OOWS) scoring systems over the period of time between administration of noribogaine (or placebo) until resumption of OST. These scales are outlined in Guidelines for the Psychosocially Assisted Pharmacological Treatment of Opioid Dependence, World Health Organization, Geneva (2009), Annex 10, which is incorporated herein by reference in its entirety. The scales measure the intensity of withdrawal symptoms, based on clinical, subjective, and objective indicia.

[6] = system: opioid-dependent participants; assay: QT interval prolongation (ΔQTc1) in opioid-dependent participants; assay type: in vivo, human; settings: 60, 120, 180 mg, first 24 hours post administration
Description: Patients' QT intervals were evaluated at regular time points throughout the study.

[7] = system: patients dependent on alcohol; assay: Effect of noribogaine on withdrawal from alcohol in humans; assay type: in vivo, human; settings: single oral dose of 2 mg/kg, at least 2 hours after last alcohol use; self-evaluation and clinical observation
Description: Six patients are orally administered a single dose of 2 mg/kg noribogaine, and three patients receive placebo in a randomized, placebo-controlled, double-blind trial. All patients are dependent on alcohol. Treatment is administered at least 2 hours after last alcohol use.

[8] = system: opioid-dependent participants; assay: Treatment emergent adverse events in opioid-dependent participants, single dose
[9] = Pharmacokinetics in opioid-dependent patients, Phase IB study (serum noribogaine); settings: 60, 120, 180 mg cohorts
[10] = Pharmacokinetics of noribogaine in healthy volunteers, ascending single oral dose (plasma, LCMSMS); settings: for CL/F / Tmax / AUC0-216 / AUC0-∞ / Cmax / t1/2: fasted healthy volunteers, mean (SD), n = 6; for mean AUC/24 hr / mean AUC/24: fasting conditions
[11] = after adjusting for baseline differences, p>0.9
[12] = 30 mg single oral noribogaine dose, plasma
[13] = 60 mg single oral noribogaine dose, plasma
[14] = across dose groups, healthy volunteers, plasma

SMILES: CC[C@H]1CC2C[C@H]3c4[nH]c5ccc(O)cc5c4CCN(C2)C13 [noribogaine]
- pupillary constriction ([1]; 3-60 mg single oral doses, dark-adapted pupil diameter up to 216 hours): no evidence of pupillary constriction
- pupil diameter, each dose group versus placebo (ANOVA) [1, 11]: no statistically significant differences
- analgesic effect in the cold pressor test ([2]; 3-60 mg single oral doses, 1° C. water): no analgesic effect
- VAS pain scores, each dose group versus placebo (ANOVA) ([2]; after adjusting for baseline differences, p=0.17): no statistically significant differences
- duration of hand immersion, each dose group versus placebo (ANOVA) [2, 11]: no statistically significant differences
- number of adverse events reported ([3]; 3 mg dose group, by two subjects): five
- number of adverse events reported ([3]; 10 mg dose group, by a single subject): one
- number of adverse events reported ([3]; 30 mg dose group, by a single subject): one
- oximetry, capnography, respiratory rate ([3]; 3-60 mg, healthy volunteers): no changes in oximetry or capnography, or changes in respiratory rate
- vital signs and safety laboratory tests ([3]; 3-60 mg, healthy volunteers): no changes in vital signs or safety laboratory tests of note
- QTcF values >500 msec ([3]; 3-60 mg, healthy volunteers, ECGs up to 216 hours post-dosing): no QTcF values >500 msec at any time
- Adverse events, Mild ([3]; Dose 3 mg, healthy volunteers): Dizziness; also recorded: Epistaxis; also recorded: Headache; also recorded: Back pain
- Adverse events, Moderate ([3]; Dose 3 mg, healthy volunteers): Headache
- Adverse events, Mild ([3]; Dose 10 mg, healthy volunteers): Headache
- Adverse events, Mild ([3]; Dose 30 mg, healthy volunteers): Headache
- intensity of adverse events ([3]; all dose groups, all resolved prior to study completion): mild-moderate intensity
- single increase in QTcF ([3]; one subject dosed with 10 mg, at 24 hours post-dosing): > 60 ms
- Time to resumption of OST compared with untreated patients and 60 mg [4]: still longer than untreated patients (7 hours, not shown) or those administered 60 mg noribogaine
- withdrawal symptoms (COWS, OOWS, SOWS scores) ([5]; 120 mg, prior to resumption of OST): fewer withdrawal symptoms than the other patients
- withdrawal symptoms versus placebo (COWS, OOWS, SOWS scores) ([5]; 60, 120, 180 mg): placebo generally experienced more withdrawal symptoms than patients who were administered noribogaine
- QT interval prolongation (ΔQTc1) [6]: dose-dependent increase in QT interval prolongation
- symptoms of alcohol withdrawal compared to placebo [7]: fewer and/or less severe symptoms of alcohol withdrawal
- AE: Catheter Site Infection ([8]; 60 mg single dose, N = 6): 0
- AE: Catheter Site Pain ([8]; 60 mg single dose, N = 6): 0
- AE: Catheter Site Related Reaction ([8]; 60 mg single dose, N = 6): 0
- AE: Cellulitis ([8]; 60 mg single dose, N = 6): 0
- AE: Diarrhoea ([8]; 60 mg single dose, N = 6): 0
- AE: Dry Mouth ([8]; 60 mg single dose, N = 6): 0
- AE: Ear and Labyrinth Disorders ([8]; 60 mg single dose, N = 6): 0
- AE: Epistaxis ([8]; 60 mg single dose, N = 6): 0
- AE: Euphoric Mood ([8]; 60 mg single dose, N = 6): 0
- AE: General Disorders and Administration Site Conditions ([8]; 60 mg single dose, N = 6): 0
- AE: Hyperaesthesia ([8]; 60 mg single dose, N = 6): 0
- AE: Infections and Infestations ([8]; 60 mg single dose, N = 6): 0
- AE: Limb Discomfort ([8]; 60 mg single dose, N = 6): 0
- AE: Malaise ([8]; 60 mg single dose, N = 6): 0
- AE: Nausea ([8]; 60 mg single dose, N = 6): 0
- AE: Oropharyngeal Pain ([8]; 60 mg single dose, N = 6): 0
- AE: Pseudoparalysis ([8]; 60 mg single dose, N = 6): 0
- AE: Respiratory, Thoracic and Mediastinal Disorders ([8]; 60 mg single dose, N = 6): 0
- AE: Rhinorrhoea ([8]; 60 mg single dose, N = 6): 0
- AE: Skin Discomfort ([8]; 60 mg single dose, N = 6): 0
- AE: Skin Irritation ([8]; 60 mg single dose, N = 6): 0
- AE: Skin and Subcutaneous Tissue Disorders ([8]; 60 mg single dose, N = 6): 0
- AE: Somnoience ([8]; 60 mg single dose, N = 6): 0
- AE: Tinnitus ([8]; 60 mg single dose, N = 6): 0
- AE: Tremor ([8]; 60 mg single dose, N = 6): 0
- AE: Urinary Tract Infection ([8]; 60 mg single dose, N = 6): 0
- AE: Vomiting ([8]; 60 mg single dose, N = 6): 0
- frequency of headaches ([8]; 60 mg treatment group): frequent
- frequency of headaches ([8]; 120 mg dose group): attenuated
- AE: Back Pain ([8]; 120 mg single dose, N = 6): 0
- AE: Catheter Site Infection ([8]; 120 mg single dose, N = 6): 0
- AE: Catheter Site Related Reaction ([8]; 120 mg single dose, N = 6): 0
- AE: Depressed Mood ([8]; 120 mg single dose, N = 6): 0
- AE: Dry Eye ([8]; 120 mg single dose, N = 6): 0
- AE: Dyspepsia ([8]; 120 mg single dose, N = 6): 0
- AE: Euphoric Mood ([8]; 120 mg single dose, N = 6): 0
- AE: Limb Discomfort ([8]; 120 mg single dose, N = 6): 0
- AE: Malaise ([8]; 120 mg single dose, N = 6): 0
- AE: Musculoskeletal and Connective Tissue Disorders ([8]; 120 mg single dose, N = 6): 0
- AE: Psychiatric Disorders ([8]; 120 mg single dose, N = 6): 0
- AE: Somnoience ([8]; 120 mg single dose, N = 6): 0
- AE: Urinary Tract Infection ([8]; 120 mg single dose, N = 6): 0
- frequency of headaches ([8]; 180 mg dose group): attenuated
- AE: Catheter Site Infection ([8]; 180 mg single dose, N = 6): 0
- AE: Catheter Site Pain ([8]; 180 mg single dose, N = 6): 0
- AE: Depressed Mood ([8]; 180 mg single dose, N = 6): 0
- AE: Diarrhoea ([8]; 180 mg single dose, N = 6): 0
- AE: Dry Eye ([8]; 180 mg single dose, N = 6): 0
- AE: Dyspepsia ([8]; 180 mg single dose, N = 6): 0
- AE: Ear and Labyrinth Disorders ([8]; 180 mg single dose, N = 6): 0
- AE: Epistaxis ([8]; 180 mg single dose, N = 6): 0
- AE: Euphoric Mood ([8]; 180 mg single dose, N = 6): 0
- AE: Hyperaesthesia ([8]; 180 mg single dose, N = 6): 0
- AE: Malaise ([8]; 180 mg single dose, N = 6): 0
- AE: Oropharyngeal Pain ([8]; 180 mg single dose, N = 6): 0
- AE: Pseudoparalysis ([8]; 180 mg single dose, N = 6): 0
- AE: Psychiatric Disorders ([8]; 180 mg single dose, N = 6): 0
- AE: Respiratory, Thoracic and Mediastinal Disorders ([8]; 180 mg single dose, N = 6): 0
- AE: Rhinorrhoea ([8]; 180 mg single dose, N = 6): 0
- AE: Skin Discomfort ([8]; 180 mg single dose, N = 6): 0
- AE: Skin Irritation ([8]; 180 mg single dose, N = 6): 0
- AE: Skin and Subcutaneous Tissue Disorders ([8]; 180 mg single dose, N = 6): 0
- AE: Somnoience ([8]; 180 mg single dose, N = 6): 0
- AE: Tinnitus ([8]; 180 mg single dose, N = 6): 0
- AE: Tremor ([8]; 180 mg single dose, N = 6): 0
- hallucinatory effects ([8]; 60, 120 or 180 mg single dose, opioid-dependent participants): no hallucinatory effects
- dose dependence of maximum serum concentration (Cmax) [9]: increased in a dose-dependent manner
- CL/F ([10]; 3 mg single oral noribogaine dose, plasma): 41.4 (7.0) L/h
- CL/F ([10]; 10 mg single oral noribogaine dose, plasma): 42.3 (12.0) L/h
- CL/F [10, 12]: 46.9 (16.4) L/h
- Tmax ([10]; 30 mg single oral noribogaine dose, plasma, listed as noribogaine free base): 1.75 h
- CL/F [10, 13]: 34.0 (11.4) L/h
- dose dependence of Cmax and AUC ([10]; 3-60 mg single oral doses, healthy volunteers): increased linearly with dose
- Volume of distribution ([10]; across dose groups (3-60 mg), healthy volunteers): 1417 to 3086 L
- time of peak concentrations after oral noribogaine dosing [10, 14]: 2 to 3 h
- absorption after oral dosing ([10]; healthy volunteers): rapidly absorbed
- mean AUC/24 hr ([10]; single dose of 3 mg noribogaine free base, healthy volunteers): 3.1 ng/mL
- mean AUC/24 hr ([10]; single dose of 10 mg noribogaine free base, healthy volunteers): 10.6 ng/mL
- mean AUC/24 ([10]; single dose of 30 mg noribogaine free base, healthy volunteers): 29.2 ng/mL
- mean AUC/24 ([10]; single dose of 60 mg noribogaine free base, healthy volunteers): 61 ng/mL

SMILES: CC[C@H]1C[C@@H]2C[C@H]3c4[nH]c5ccc(OC6OC(C(=O)O)C(O)C(O)C6O)cc5c4CCN(C2)[C@@H]13 (some centres unmarked) [Noribogaine glucuronide, noribogaine glucuronide]
- AUC0-216 [10, 12]: 25.7 (9.1) ng · hr/ml
- AUC0-∞ [10, 12]: 25.8 (9.3) ng · hr/ml
- Cmax [10, 12]: 1.8 (0.6) ng/ml
- Tmax [10, 12]: 3.0 (0.6) hr
- t1/2 [10, 12]: 20.6 (4.9) hr
- AUC0-216 [10, 13]: 65.0 (21.5) ng · hr/ml
- AUC0-∞ [10, 13]: 67.1 (21.9) ng · hr/ml
- Cmax [10, 13]: 4.1 (1.2) ng/ml
- Tmax [10, 13]: 3.8 (1.2) hr
- t1/2 [10, 13]: 23.1 (3.0) hr
- mean half-life estimates [10, 14]: 21 to 23 h
- time of peak concentrations after oral noribogaine dosing [10, 14]: 3 to 4 h
- time by which detected in plasma of all subjects ([10]; after 30 mg or 60 mg oral noribogaine, healthy volunteers): ≤ 0.75 h
- proportion of noribogaine glucuronide Cmax and AUC relative to noribogaine ([10]; both dose groups (30 mg and 60 mg)): 3-4%
